Laboratory results reported in publication PMC6614406, “Phylogenetic and crystallographic analysis of Nostoc phycocyanin having blue-shifted spectral properties” (Scientific Reports, 2019).

Key:
[1] = target: T1, Nostoc sp. R76DM phycocyanin (N-PC) (Nostoc, UniProt A0A5H1ZR40+A0A5H1ZR41); test: X-ray crystal structure ([…] Å); type: binding; conditions: covalent; native chromophore attached to alpha Cys84, beta Cys82 and beta Cys153; 18 PCB per hexamer
T1 construct: native, purified from Nostoc sp; R76DM cells; (alpha3beta3)2 hexamer; subunits near 18 kDa on SDS-PAGE; chromophores covalently attached

[2] = target: Nostoc sp. R76DM phycocyanin αβ heterodimer (αβ monomer) (Nostoc sp. R76DM); test: crystal structure; N-PC at 10 mg/mL, sitting drop vapor diffusion, 0.2 M sodium malonate, 20% (w/v) PEG 3350, 25 °C; space group P21, 2.35 Å; one (α3β3)2 hexamer in the asymmetric unit

T1 sequence (A0A5H1ZR41 entry or part of it): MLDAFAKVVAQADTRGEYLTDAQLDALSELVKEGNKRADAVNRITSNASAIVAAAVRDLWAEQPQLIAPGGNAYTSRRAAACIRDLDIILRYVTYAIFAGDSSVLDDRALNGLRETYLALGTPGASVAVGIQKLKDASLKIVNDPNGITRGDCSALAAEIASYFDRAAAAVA
T1 sequence (A0A5H1ZR40 entry or part of it): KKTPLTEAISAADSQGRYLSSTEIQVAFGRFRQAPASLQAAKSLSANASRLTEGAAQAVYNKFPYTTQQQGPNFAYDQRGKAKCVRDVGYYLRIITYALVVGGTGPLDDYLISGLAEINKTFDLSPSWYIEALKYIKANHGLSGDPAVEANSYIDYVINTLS

Compound | X-ray crystal structure (2.35 Å) [1] | stoichiometry N [2]
C/C=C1/C(=C/c2[nH]c(/C=C3N=C(/C=C4\NC(=O)C(CC)=C4C)C(C)=C\3CCC(=O)O)c(CCC(=O)O)c2C)NC(=O)[C@@H]1C [phycocyanobilin] | The N-PC contains three PCB chromophores; one is attached covalently with Cys84 of α-subunit | 
Nostoc sp. R76DM phycocyanin αβ heterodimer (αβ monomer) (complex) |  | 6
